# Earlier results in patent US8889745B2 (Nanunanu Ltd., priority 2006, dated 2014).
smiles,measurement,value
C[C@@H]1C[C@H]2[C@@H]3CCC4=CC(=O)C=C[C@]4(C)[C@@]3(F)[C@@H](O)C[C@]2(C)[C@@]1(O)C(=O)CO [dexamethasone],aqueous solubility,0.088 mg/mL
